Literature values in patent US12167995B2, “[((1R,2S,5R)-2-isopropyl-5-methyl-cyclohexanecarbonyl)-amino]-acetic acid isopropyl ester for treatment of chronic cough” (AXALBION SA, priority 2019, dated 2024).
Entries after “also recorded” stand apart in the source; their conditions may differ. Like-named read-outs stand apart in the source and are kept apart here.

Key:
[1] = tested on: isolated guinea pig vagal nerves; conditions: Maher et al., 2014; cited from earlier work
[2] = tested on: refractory chronic cough (RCC); conditions: cited from earlier work
[3] = tested on: acute cough induced by capsaicin; conditions: MK-7264: in RCC patients or in healthy subjects; cited from earlier work

## CC(C)[C@@H]1CC[C@@H](C)C[C@H]1O [menthol, (1R,2S,5R)-2-isopropyl-5-methyl-cyclohexanol]
[1]
  TRPM8 dependence of inhibition of capsaicin-induced response: in a TRPM8-independent way

## O=C(Nc1ccccc1Br)N[C@@H]1CCN(c2ccc(C(F)(F)F)cn2)C1 [SB-705498]
[2]; human, in vivo
  effect on cough frequency in RCC patients: do not reduce cough frequency in RCC patients
[3]
  effect on acute cough induced by capsaicin: inhibit acute cough induced by capsaicin

## COc1cc(C(C)C)c(Oc2cnc(N)nc2N)cc1S(N)(=O)=O [MK-7264]
[2]; 50 mg per day
  patients with adverse events related to taste (dysgeusia, hypogeusia, or ageusia): 81%
[2]; 1200 mg per day
  patients with adverse events related to taste (dysgeusia, hypogeusia, or ageusia): 100%
[2]; human, in vivo
  effect on VAS scores in RCC patients: poorly effective in improving the VAS scores
  effect on cough frequency in RCC patients: efficient in reducing cough frequency; also recorded: efficient in decreasing cough frequency in RCC patients
[3]
  effect on acute cough induced by capsaicin: not effective for acute cough induced by the tussive stimulus capsaicin
